The source of these data is the NIST ThermoML archive (doi:10.1016/j.tca.2004.12.012).

SMILES strings stand for the structures. ± gives the expanded uncertainty stated by the source.

For this data set the following is noted: Crystal 2; DTA.

Regarding `[Br-].[Na+]` [sodium bromide], the Triple point temperature was determined as 1114 ± 3 K.
